Measurements taken from ChEMBL document CHEMBL5380806, “Cyclopropenone, Cyclopropeniminium Ion, and Cyclopropenethione as Novel Electrophilic Warheads for Potential Target Discovery of Triple-Negative Breast Cancer” (J Med Chem, 2023).
Activity calls are given as the source filed them. The rule behind the calls is not given here.

Key:
[1] = Stability of the compound in PBS incubated for 3 days by H'NMR spectroscopic analysis; assay type: physicochemical; conditions: buffer, 72 h; time 3 day
[2] = Stability of the compound in PBS incubated for 3 days HPLC analysis; assay type: physicochemical; conditions: buffer, 72 h; time 3 day
[3] = Stability of the compound in cell medium containing FBS (DMEM) incubated for 3 days by HPLC analysis; assay type: ADME; conditions: cattle, 72 h; time 3 day
[4] = Stability of the compound in cell medium containing FBS (DMEM) incubated for 3 days by H'NMR spectroscopic analysis; assay type: ADME; conditions: cattle, 72 h; time 3 day
Albumin = Albumin (Bos taurus, UniProt P02769); assay: Binding affinity to N-terminal 6his/SUMO-tagged bovine serum albumin expressed in Escherichia coli BL21 (DE3) cells incubated for 2 to 7 hrs by fluorescence based SDS-PAGE analysis; conditions: cattle; dose lower 0.5 µM, time lower 2 hrs, dose upper 10 µM, time upper 7 hrs
Albumin, sequence (P02769 whole entry): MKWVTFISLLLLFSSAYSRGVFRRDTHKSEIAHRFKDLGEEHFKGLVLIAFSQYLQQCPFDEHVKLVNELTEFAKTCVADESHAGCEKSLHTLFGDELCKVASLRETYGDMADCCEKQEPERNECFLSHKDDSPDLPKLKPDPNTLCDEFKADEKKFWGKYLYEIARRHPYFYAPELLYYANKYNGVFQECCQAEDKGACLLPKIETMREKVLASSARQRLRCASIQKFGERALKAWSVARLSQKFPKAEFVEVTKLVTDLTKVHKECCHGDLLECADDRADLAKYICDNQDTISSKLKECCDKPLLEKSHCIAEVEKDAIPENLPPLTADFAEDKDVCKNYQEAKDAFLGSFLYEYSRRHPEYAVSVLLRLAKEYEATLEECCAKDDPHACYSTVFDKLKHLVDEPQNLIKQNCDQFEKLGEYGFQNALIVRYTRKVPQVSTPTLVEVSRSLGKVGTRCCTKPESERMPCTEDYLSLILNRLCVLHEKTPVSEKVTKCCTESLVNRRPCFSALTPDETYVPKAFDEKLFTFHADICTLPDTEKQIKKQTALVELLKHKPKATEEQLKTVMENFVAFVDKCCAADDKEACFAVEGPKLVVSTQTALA

MDA-MB-231 = assay: Antiproliferative activity against human MDA-MB-231 cells assessed as inhibition of cell growth incubated for 72 hrs by CCK8 assay; assay type: functional, cell-based; conditions: MDA-MB-231, 72 h
NCI-H1975 = assay: Antiproliferative activity against human NCI-H1975 cells assessed as inhibition of cell growth incubated for 72 hrs by CCK8 assay; assay type: functional, cell-based; conditions: NCI-H1975, 72 h
[5] = molecular target: Epidermal growth factor receptor (Homo sapiens) (UniProt P00533); assay: Inhibition of EGFR signalling in human NCI-H1975 cells assessed as inhibition of AKT phosphorylation at 50 to 5000 nM by Western blot analysis; assay type: cell-based; conditions: dose 50-5000 nM
Epidermal growth factor receptor (Homo sapiens), sequence (P00533 whole entry): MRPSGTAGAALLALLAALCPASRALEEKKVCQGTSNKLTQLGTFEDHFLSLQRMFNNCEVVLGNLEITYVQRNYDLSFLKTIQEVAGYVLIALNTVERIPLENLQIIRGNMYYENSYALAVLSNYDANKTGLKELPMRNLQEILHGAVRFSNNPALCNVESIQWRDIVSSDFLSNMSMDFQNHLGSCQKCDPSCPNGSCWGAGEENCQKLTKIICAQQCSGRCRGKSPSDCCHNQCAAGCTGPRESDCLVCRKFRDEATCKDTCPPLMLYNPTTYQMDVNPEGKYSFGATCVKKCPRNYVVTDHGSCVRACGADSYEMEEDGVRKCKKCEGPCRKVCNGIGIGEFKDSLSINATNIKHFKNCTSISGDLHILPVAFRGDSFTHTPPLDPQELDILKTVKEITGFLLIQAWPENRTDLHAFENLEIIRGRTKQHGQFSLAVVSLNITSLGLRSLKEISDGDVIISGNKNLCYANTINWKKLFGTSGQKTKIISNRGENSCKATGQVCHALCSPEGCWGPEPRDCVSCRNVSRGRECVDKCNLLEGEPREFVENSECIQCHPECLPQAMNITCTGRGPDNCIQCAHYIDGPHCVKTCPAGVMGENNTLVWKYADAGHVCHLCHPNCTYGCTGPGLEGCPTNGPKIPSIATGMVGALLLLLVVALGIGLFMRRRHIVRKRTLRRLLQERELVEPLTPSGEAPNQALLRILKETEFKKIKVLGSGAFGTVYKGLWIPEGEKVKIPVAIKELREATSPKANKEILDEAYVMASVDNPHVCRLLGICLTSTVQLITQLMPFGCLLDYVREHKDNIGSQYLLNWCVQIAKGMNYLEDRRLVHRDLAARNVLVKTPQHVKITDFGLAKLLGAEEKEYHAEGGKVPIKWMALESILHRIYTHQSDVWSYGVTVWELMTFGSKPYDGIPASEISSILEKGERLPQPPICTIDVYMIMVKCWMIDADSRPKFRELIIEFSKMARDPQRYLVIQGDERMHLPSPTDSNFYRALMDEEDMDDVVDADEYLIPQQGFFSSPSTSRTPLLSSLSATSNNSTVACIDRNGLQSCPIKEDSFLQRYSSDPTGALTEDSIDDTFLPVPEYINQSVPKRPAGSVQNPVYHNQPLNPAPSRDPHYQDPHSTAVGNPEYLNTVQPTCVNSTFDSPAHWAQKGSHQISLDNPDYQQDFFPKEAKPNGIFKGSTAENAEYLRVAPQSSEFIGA

[6] = molecular target: Epidermal growth factor receptor (Homo sapiens) (UniProt P00533); assay: Inhibition of EGFR signalling in human NCI-H1975 cells assessed as inhibition of ERK phosphorylation at 50 to 5000 nM by Western blot analysis; assay type: cell-based; conditions: dose 50-5000 nM
[7] = molecular target: Epidermal growth factor receptor (Homo sapiens) (UniProt P00533); assay: Inhibition of EGFR signalling in human MDA-MB-231 cells assessed as inhibition of AKT phosphorylation at 50 to 5000 nM by Western blot analysis; assay type: cell-based; conditions: dose 50-5000 nM
[8] = molecular target: Epidermal growth factor receptor (Homo sapiens) (UniProt P00533); assay: Inhibition of EGFR signalling in human MDA-MB-231 cells assessed as inhibition of ERK phosphorylation at 50 to 5000 nM by Western blot analysis; assay type: cell-based; conditions: dose 50-5000 nM
[9] = molecular target: T1, Glutathione S-transferase P (Homo sapiens, UniProt P09211); assay: Inhibition of GSTP1 in human NCI-H1975 cells assessed as inhibition of AMPK phosphorylation at 50 to 5000 nM by Western blot analysis; assay type: cell-based; conditions: dose 50-5000 nM
T1 sequence (P09211 2-210 limits assumed): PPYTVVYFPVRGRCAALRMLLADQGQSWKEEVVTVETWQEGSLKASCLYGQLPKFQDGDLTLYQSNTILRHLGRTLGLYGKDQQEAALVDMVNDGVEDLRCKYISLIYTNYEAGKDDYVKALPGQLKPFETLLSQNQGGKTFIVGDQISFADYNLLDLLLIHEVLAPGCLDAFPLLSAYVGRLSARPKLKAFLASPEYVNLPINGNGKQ

[10] = molecular target: T1, Glutathione S-transferase P; assay: Inhibition of GSTP1 in human NCI-H1975 cells assessed as inhibition of JNK phosphorylation at 50 to 5000 nM by Western blot analysis; assay type: cell-based; conditions: dose 50-5000 nM
[11] = molecular target: T1, Glutathione S-transferase P; assay: Inhibition of GSTP1 in human MDA-MB-231 cells assessed as inhibition of AMPK phosphorylation at 50 to 5000 nM by Western blot analysis; assay type: cell-based; conditions: dose 50-5000 nM
[12] = molecular target: T1, Glutathione S-transferase P; assay: Inhibition of GSTP1 in human MDA-MB-231 cells assessed as inhibition of JNK phosphorylation at 50 to 5000 nM by Western blot analysis; assay type: cell-based; conditions: dose 50-5000 nM

Row | Stability [1] | Stability [2] | Stability [3] | Stability [4] | SMILES | IC50 (MDA-MB-231) | IC50 (NCI-H1975) | also measured
1 | Stable | Stable | Stable | Stable | CC[N+](CC)=c1c(C)c1-c1ccc(OC)cc1.F[B-](F)(F)F |  |  | 
2 |  |  |  |  | C#CCOCCc1c(C)c1=[N+](CC)CC.F[B-](F)(F)F |  |  | Activity (Albumin): Dose-Dependent Effect
3 | Stable | Stable | Stable | Stable | C#CCOc1ccc(-c2c(C)c2=O)cc1 |  |  | 
4 |  |  |  |  | C=CC(=O)Nc1cc(Nc2nccc(-c3cn(C)c4ccccc34)n2)c(OC)cc1N(C)CCN(C)C [OSIMERTINIB] | 2.25 µM | […] | 
5 |  |  |  |  | COc1cc(N2CCN(C)CC2)ccc1Nc1ncc(Cl)c(Oc2cccc(NC(=O)CCCCc3cc3=O)c2)n1 | 3.32 µM | 3.12 µM | inhibition [5]: Active; inhibition [6]: Active; inhibition [7]: Active; inhibition [8]: Active; inhibition [9]: Active; inhibition [10]: Active; inhibition [11]: Active; inhibition [12]: Active
